For series [1] the following is noted: compound of formula (I) and its salts; cited from Imai et al. 2006 and Ema et al. 2004 (rats); cited from earlier work.
In series [2] the test system is histone H2B and H3 gene expression in HSC-3 cell line. Put plainly: Reverse transcription-PCR of histone H2B and H3 gene expression. It is filed as cell-based, human. The following applies: 6.25 μM, 24 hours, GAPDH internal control. The method, then:
HSC-3 cell lines were cultured and respectively treated by 0 μM and 6.25 μM hinokitiol for 24 hours. Then, the cells were scratched from the cell culture dishes and collected by centrifugation. Afterwards, reverse transcription-PCR (RT-PCR) was performed. The protocols and conditions related to RT-PCR can be seen in Shieh, T. M. et al., Association of expression aberrances and genetic polymorphisms of lysyl oxidase with areca-associated oral tumorigenesis. Clin Cancer Res, 2007. 13 (15 Pt1), p. 4378-85; and Shieh, T. M. et al., Association between the polymorphisms in exon 12 of hypoxia-inducible factor-1alpha and the clinicopathological features of oral squamous cell carcinoma. Oral Oncol, 2010. 46 (9), p. e47-53, which are entirely incorporated hereinto by reference.
The gene expression level of Glyceraldehyde-3-phosphate dehydrogenase (GAPDH) was used as an internal control. The variation of the gene expression level of histone H2B and H3 in HSC3 cell lines treated by hinokitiol was compared with the control group, and the results are shown in FIG. 2. At least two independent RT-PCR experiments were performed to validate the reproducibility of the analysis.

Series [3] deals with histone gene transcription of the HSC-3 cancer cell line. Put plainly: Microarray analysis of gene expression in hinokitiol-treated HSC-3 cells. It is filed as cell-based. The following applies: 6.25 μM or 12.5 μM hinokitiol, 24 hours, Affymetrix Human Gene 1.0 ST microarray. As to the method: (1) Cell Culture and RNA Collection
Human oral squamous-cell carcinoma (OSCC) cell lines, such as HSC-3 (JCRB0623, Japan), was cultured. The relative culture methods can be seen in Shieh, T. M. et al., Association of expression aberrances and genetic polymorphisms of lysyl oxidase with areca-associated oral tumorigenesis. Clin Cancer Res, 2007. 13(15 Pt 1): p. 4378-85; Chen, J. C. et al., Gypenosides induced G0/G1 arrest via CHk2 and apoptosis through endoplasmic reticulum stress and mitochondria-dependent pathways in human tongue cancer SCC-4 cells. Oral Oncol, 2009. 45(3): p. 273-83; and Lin, C. C. et al., Berberine induces apoptosis in human HSC-3 oral cancer cells via simultaneous activation of the death receptor-mediated and mitochondrial pathway. Anticancer Res, 2007. 27(5A): p. 3371-8, which are entirely incorporated hereinto by reference.
Then, the HSC-3 cell lines were divided into four groups: two groups of the cells were not treated by hinokitiol (0 μM); one group of the cells was treated by 6.25 μM hinokitiol (commercially purchased from Sigma-Aldrich company); and one group of the cells was treated by 12.5 μM hinokitiol. […] The content and purity of the obtained RNA were respectively determined at wavelengths of 260 nm and 280 nm by using a micro-volume spectrophotometer (Nanodrop ND-1000, commercially purchased from Labtech. International company). […]

The subject of series [4] is histone H3 expression in HSC-3 cancer cell line. In words: Western blotting analysis of histone H3, HSC-3 cancer cell line. The settings on record: 6.25 μM and 12.5 μM, 24 hours, actin internal control. Format: cell-based, human. The method, then: (§1) Normal human oral keratinocyte cell lines (OK, obtained from China Medical University Hospital, Taiwan), HSC-3 cancer cell lines, and SAS cancer cell lines (OSCC cancer cell line, obtained from the tongue tissue of a patient in National Yang Ming University, Taiwan) were cultured (the protocols related to cell culture can be seen in Lu, S. Y. et al., Ripe areca nut extract induces G1 phase arrests and senescence-associated phenotypes in normal human oral keratinocyte. Carcinogenesis, 2006. 27 (6), p. 1273-84; and Shieh, T. M. et al., Association of expression aberrances and genetic polymorphisms of lysyl oxidase with areca-associated oral tumorigenesis. Clin Cancer Res, 2007. 13 (15 Pt 1), p. 4378-85, which are entirely incorporated hereinto by reference). The cells were respectively treated by 0 μM, 6.25 μM, and 12.5 μM hinokitiol for 24 hours, and scratched from the cell culture dishes and collected by centrifugation. Then, western blotting analysis was performed (see Lu, S. Y. et al., Ripe areca nut extract induces G1 phase arrests and senescence-associated phenotypes in normal human oral keratinocyte. Carcinogenesis, 2006. 27 (6), p. 1273-84, which is entirely incorporated hereinto by reference). […]
(In general: A western blot detects proteins with antibodies after separation by electrophoresis.)

The next series concerns HSC-3 cells. Put plainly: Cell cycle analysis by flow cytometry (PI staining). It is filed as cell-based, human. The following applies: 24 hours, 0 μM control 31.38%. As to the method:
HSC-3 cells (2×10^5/4 ml) were respectively treated by 0 μM, 3.12 μM, and 6.25 μM hinokitiol for 24 hours, washed by an ice-cold PBS buffer solution twice, and fixed in 70% ice-cold ethanol at 4° C. for 4 hours. Then, the cells were stained by propidium iodide (PI), and a cell cycle analysis was performed by using a BD FACSAria flow cytometer (commercially purchased from Becton Dickinson, Germany). The obtained data was analyzed by MULTICycle Software (commercially purchased from Coulter company, U.S.A.).
On the technique in general: A flow cytometer gives signals particle by particle.

In series [5] the test system is histone H3 expression in normal human oral keratinocyte cell line (OK). In words: Western blotting analysis of histone H3, normal human oral keratinocyte cell line. It is filed as cell-based. The following applies: 6.25 μM and 12.5 μM, 24 hours, actin internal control. As to the method: as §1
Series [6] concerns histone H3 expression in SAS cancer cell line. Put plainly: Western blotting analysis of histone H3, SAS cancer cell line. It is filed as cell-based, human. The following applies: 6.25 μM and 12.5 μM, 24 hours, actin internal control. As to the method: as §1

The structures appear in SMILES notation.

On to `CC(C)c1cccc(O)c(=O)c1` [hinokitiol], for which, in series [1], the biological toxicity result is reported as “low biological toxicity”. For the same molecule, the “gene expression level of histone H2B” value in series [2] is on record as “decreased”. The “gene expression level of histone H3” value in series [2] is on record as “decreased”. The “expression of histone genes (H1d, H3g, H3j, H3a, H3h, H2bm, H2bg, H3l, H2bf, H2a) vs untreated control” value in series [3] was “decreased by above two-fold”. For the same molecule, the “expression level of histone H3” value in series [4] is “significantly decreased”; in series [5], “not affected”; in series [6], “significantly decreased”. Besides, the “proportion of the cells in the synthesis phase (S phase)” value is given as 41.19% in the series on HSC-3 cells (3.125 μM hinokitiol) and 43.89% with HSC-3 cells (6.25 μM hinokitiol).

The values above are taken from US20130137776A1, “METHOD FOR INHIBITING HISTONE GENE TRANSCRIPTION AND EXPRESSION” (CHINA MEDICAL UNIVERSITY, priority 2011, published 2013).
